Measured values from patent US20230167479A1, “RESEARCH INTO ANTIMICROBIAL RESISTANCE BY THE FIELD FLOW FRACTIONATION TECHNIQUE” (UNIVERSITÉ DE LIMOGES, priority 2020, published 2023).
Converted amounts (≈) assume the structure as drawn.

Columns and labels:
Type in all cases: cell-based
[1] = system: E. coli strain ATCC 35218; test: SdFFF elution-profile sensitivity test, protocol of Example 2 / FIG. 4; conditions: for percentage of variation in the retention factor PΔR: resistant strain, 4 mg/ml ampicillin vs control, significance threshold 10%
Description: (§1) The results of the antimicrobial resistance analysis are expected starting 18-26 hours after the sample was cultured on agar.
(§2) The field-flow fractionation device is set according to patent EP1679124. The device comprises an injection system where the sample is taken, the tubing bringing the sample from the injector to the separation channel via a first rotary joint, the separation channel contained in a centrifugation bowl, the rotation of which is ensured by an electric motor itself controlled manually or via a suitable computer device, thus allowing control of the intensity of the multigravitational field, the tubing bringing the separated species from the channel to the detector via the second rotary joint, and finally the detector.
(§3) Bacterial colonies were incubated in a Mueller-Hinton (MH) culture medium with an inoculum of 0.5 McFarland in the absence or in the presence of antibiotic, for 2 hours at 37° C. and under stirring. The liquid medium MH is the reference medium used for the reference method for determining MIC values, called the dilution method in a liquid medium.
(§4) After incubation for 2 h, the culture medium was centrifuged and then taken up in a volume of 0.5 ml of PBS.
(§5) According to the handlings shown in FIG. 5, the calculation of the percentage of variation in the retention factor or PΔR is carried out as follows: ?
(§6) Example 2: A new analysis protocol was established according to FIG. 4, consistent with the clinical implementation of conventional antibiograms, making it possible to reduce to 26 hours post-sampling/isolating the time for obtaining the test results.
(§7) Thus, such assays were carried out directly on bacterial suspensions, obtained from colonies of the E. coli strain ATCC 25922 and ATCC 35218 cultured for 16-24 hours on agar medium, and incubated for 2 hours in the presence or in the absence of antibiotic (Ampicillin, FIGS. 5A/B).

[2] = system: E. coli strain ATCC 25922; test: as above; conditions: for percentage of variation in the retention factor PΔR: sensitive strain, 4 mg/ml ampicillin vs control, significance threshold 10%
Description: as §1, §2, §3, §4, §5, §6, §7

[3] = system: E. coli strain ATCC 25922; test: SdFFF elution-profile sensitivity test, protocol of Example 1 / FIG. 1; conditions: significance threshold 10%
Description: The results of the antimicrobial resistance analysis are expected starting 40 hours after the sample was cultured on agar.
as §2, §3, §4
Example 1: Results of resistance tests of the E. coli strain ATCC 25922 to various molecules, using SdFFF according to the present invention. […]

E. coli ATCC EC 25922 = test: minimum inhibitory concentration; conditions: Escherichia coli, ATCCEC25922; concentration said to correspond to the MIC
[4] = 4 mg/ml ampicillin, PΔR compared with 10% threshold

SMILES | sensitivity/resistance of the strain to the antimicrobial [1, 4] | PΔR ([1]; resistant strain incubated with 8 mg/ml ampicillin) | percentage of variation in the retention factor PΔR [1] | percentage of variation in the retention factor PΔR ([1]; listed as Ampicillin) | sensitivity/resistance of the strain to the antimicrobial [2, 4] | percentage of variation in the retention factor PΔR [2] | percentage of variation in the retention factor PΔR ([2]; listed as Ampicillin) | PΔR ([3]; 0.03 µg/ml chlortetracycline vs control) | MIC (E. coli ATCC EC 25922) | percentage of variation in the retention factor PΔR ([3]; 3 µg/ml of kanamycin vs control)
CC1(C)S[C@@H]2[C@H](NC(=O)[C@H](N)c3ccccc3)C(=O)N2[C@H]1C(=O)O [ampicillin, Ampicillin] | resistant | ≈ 7% | 4.50% | ≈ 5% | sensitive | 12.70% | ≈ 13% |  |  | 
CN(C)[C@@H]1C(O)=C(C(N)=O)C(=O)[C@@]2(O)C(O)=C3C(=O)c4c(O)ccc(Cl)c4[C@@](C)(O)[C@H]3C[C@@H]12 [chlortetracycline, Chlortetracycline] |  |  |  |  |  |  |  | 22% | 0.03 µg/mL (≈ 0.0626 µM) | 
NC[C@H]1O[C@H](O[C@H]2[C@H](O)[C@@H](O[C@H]3O[C@H](CO)[C@@H](O)[C@H](N)[C@H]3O)[C@H](N)C[C@@H]2N)[C@H](O)[C@@H](O)[C@@H]1O [kanamycin] |  |  |  |  |  |  |  |  | 3 µg/mL (≈ 6.19 µM) | 11.2%
